This note sets out measurements from PMC5628141 (Molecular cancer therapeutics, 2017).

The target of the experiment is T1, androgen receptor DNA binding domain (AR-DBD) (Rattus norvegicus, UniProt P15207, C552A).
T1 sequence (P15207 550-637 C552A): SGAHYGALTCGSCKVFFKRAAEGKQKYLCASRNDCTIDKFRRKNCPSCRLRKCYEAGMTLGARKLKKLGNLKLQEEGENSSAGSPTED
In words: isothermal titration calorimetry.

On to `Brc1cn(-c2csc(N3CCOCC3)n2)c(Br)n1` [VPC-14449, 4-(4-(2,4-bromo-1H-imidazol-1-yl)thiazol-2-yl)morpholine], for which the Kd (as a rule, the free concentration of one partner at which half of the binding sites on the other are occupied at equilibrium, for simple one-to-one binding) was about 64 µM.
